Laboratory results reported in patent US10172961B2 (priority 2014, dated 2019).

What was measured:
in vivo = conditions: rat, inhaled or intranasal, 6 mg/kg
[1] = rat, in vivo

SMILES	level at time molar at 8 h (in vivo) [nM]	presence in the brain / CNS localization [1]	presence in the serum [1]
CC[C@H](C)[C@H](NC(=O)[C@H](C)NC(=O)[C@H](CC(N)=O)NC(=O)CNC(=O)[C@H](CC(C)C)NC(=O)[C@H](CC(N)=O)NC(=O)[C@@H](NC(=O)CNC(=O)[C@@H](NC(=O)[C@H](CC(=O)O)NC(=O)[C@H](CC(C)C)NC(=O)[C@H](CCCNC(=N)N)NC(=O)[C@H](CCC(=O)O)NC(=O)[C@H](CC(C)C)NC(=O)[C@H](CO)NC(=O)[C@@H](NC(=O)[C@@H]1CCCN1C(=O)[C@@H]1CCCN1C(C)=O)[C@@H](C)CC)C(C)C)[C@@H](C)O)C(=O)N[C@@H](C)C(=O)N[C@@H](CCCCN)C(=O)N[C@@H](CC(C)C)C(=O)N[C@@H](CCC(=O)O)C(=O)N[C@@H](CC(=O)O)C(=O)N[C@@H](C)C(=O)N[C@@H](CCCCN)C(=O)N[C@@H](CCC(=O)O)C(=O)N[C@@H](CC(C)C)C(=O)N[C@@H](CC(C)C)C(=O)N[C@@H](CCC(=O)O)C(=O)N[C@@H](CO)C(=O)N[C@@H](CO)C(=O)N[C@@H](CC(=O)O)C(=O)N[C@@H](CCC(N)=O)C(=O)N[C@H](C(=O)N[C@@H](CC(C)C)C(=O)N[C@@H](CCCNC(=N)N)C(=O)NCC(=O)N[C@@H](CO)C(=O)NCC(=O)N[C@@H](CO)C(=O)NCC(=O)N[C@@H](CSC1=CC(=O)N(CCCC(=O)NCCOCCOCCOCCOCCC(=O)NCCN(CCNC(=O)CCOCCOCCOCCOCCNC(=O)CCCN2C(=O)C=C(SC[C@H](NC(=O)CNC(=O)[C@H](CO)NC(=O)CNC(=O)[C@H](CO)NC(=O)CNC(=O)[C@H](CCCNC(=N)N)NC(=O)[C@H](CC(C)C)NC(=O)[C@@H](NC(=O)[C@H](CCC(N)=O)NC(=O)[C@H](CC(=O)O)NC(=O)[C@H](CO)NC(=O)[C@H](CO)NC(=O)[C@H](CCC(=O)O)NC(=O)[C@H](CC(C)C)NC(=O)[C@H](CC(C)C)NC(=O)[C@H](CCC(=O)O)NC(=O)[C@H](CCCCN)NC(=O)[C@H](C)NC(=O)[C@H](CC(=O)O)NC(=O)[C@H](CCC(=O)O)NC(=O)[C@H](CC(C)C)NC(=O)[C@H](CCCCN)NC(=O)[C@H](C)NC(=O)[C@@H](NC(=O)[C@H](C)NC(=O)[C@H](CC(N)=O)NC(=O)CNC(=O)[C@H](CC(C)C)NC(=O)[C@H](CC(N)=O)NC(=O)[C@@H](NC(=O)CNC(=O)[C@@H](NC(=O)[C@H](CC(=O)O)NC(=O)[C@H](CC(C)C)NC(=O)[C@H](CCCNC(=N)N)NC(=O)[C@H](CCC(=O)O)NC(=O)[C@H](CC(C)C)NC(=O)[C@H](CO)NC(=O)[C@@H](NC(=O)[C@@H]3CCCN3C(=O)[C@@H]3CCCN3C(C)=O)[C@@H](C)CC)C(C)C)[C@@H](C)O)[C@@H](C)CC)[C@@H](C)CC)C(N)=O)C2=O)CCOc2c(C)c(C)c3c(c2C)CC[C@](C)(CCC[C@@H](C)CCC[C@@H](C)CCCC(C)C)O3)C1=O)C(N)=O)[C@@H](C)CC [HRC4-tocopherol]	~2000	no CNS localization	minimal presence in the serum
CC[C@H](C)[C@H](NC(=O)[C@H](C)NC(=O)[C@H](CC(N)=O)NC(=O)CNC(=O)[C@H](CC(C)C)NC(=O)[C@H](CC(N)=O)NC(=O)[C@@H](NC(=O)CNC(=O)[C@@H](NC(=O)[C@H](CC(=O)O)NC(=O)[C@H](CC(C)C)NC(=O)[C@H](CCCNC(=N)N)NC(=O)[C@H](CCC(=O)O)NC(=O)[C@H](CC(C)C)NC(=O)[C@H](CO)NC(=O)[C@@H](NC(=O)[C@@H]1CCCN1C(=O)[C@@H]1CCCN1C(C)=O)[C@@H](C)CC)C(C)C)[C@@H](C)O)C(=O)N[C@@H](C)C(=O)N[C@@H](CCCCN)C(=O)N[C@@H](CC(C)C)C(=O)N[C@@H](CCC(=O)O)C(=O)N[C@@H](CC(=O)O)C(=O)N[C@@H](C)C(=O)N[C@@H](CCCCN)C(=O)N[C@@H](CCC(=O)O)C(=O)N[C@@H](CC(C)C)C(=O)N[C@@H](CC(C)C)C(=O)N[C@@H](CCC(=O)O)C(=O)N[C@@H](CO)C(=O)N[C@@H](CO)C(=O)N[C@@H](CC(=O)O)C(=O)N[C@@H](CCC(N)=O)C(=O)N[C@H](C(=O)N[C@@H](CC(C)C)C(=O)N[C@@H](CCCNC(=N)N)C(=O)NCC(=O)N[C@@H](CO)C(=O)NCC(=O)N[C@@H](CO)C(=O)NCC(=O)N[C@@H](CSC1=CC(=O)N(CCCC(=O)NCCOCCOCCOCCOCCC(=O)NCCN(CCNC(=O)CCOCCOCCOCCOCCNC(=O)CCCN2C(=O)C=C(SC[C@H](NC(=O)CNC(=O)[C@H](CO)NC(=O)CNC(=O)[C@H](CO)NC(=O)CNC(=O)[C@H](CCCNC(=N)N)NC(=O)[C@H](CC(C)C)NC(=O)[C@@H](NC(=O)[C@H](CCC(N)=O)NC(=O)[C@H](CC(=O)O)NC(=O)[C@H](CO)NC(=O)[C@H](CO)NC(=O)[C@H](CCC(=O)O)NC(=O)[C@H](CC(C)C)NC(=O)[C@H](CC(C)C)NC(=O)[C@H](CCC(=O)O)NC(=O)[C@H](CCCCN)NC(=O)[C@H](C)NC(=O)[C@H](CC(=O)O)NC(=O)[C@H](CCC(=O)O)NC(=O)[C@H](CC(C)C)NC(=O)[C@H](CCCCN)NC(=O)[C@H](C)NC(=O)[C@@H](NC(=O)[C@H](C)NC(=O)[C@H](CC(N)=O)NC(=O)CNC(=O)[C@H](CC(C)C)NC(=O)[C@H](CC(N)=O)NC(=O)[C@@H](NC(=O)CNC(=O)[C@@H](NC(=O)[C@H](CC(=O)O)NC(=O)[C@H](CC(C)C)NC(=O)[C@H](CCCNC(=N)N)NC(=O)[C@H](CCC(=O)O)NC(=O)[C@H](CC(C)C)NC(=O)[C@H](CO)NC(=O)[C@@H](NC(=O)[C@@H]3CCCN3C(=O)[C@@H]3CCCN3C(C)=O)[C@@H](C)CC)C(C)C)[C@@H](C)O)[C@@H](C)CC)[C@@H](C)CC)C(N)=O)C2=O)CCOC2CCC3(C)C(=CCC4C3CCC3(C)C(C(C)CCCC(C)C)CCC43)C2)C1=O)C(N)=O)[C@@H](C)CC (stereo partly drawn) [MV HRC4]	~400	a small fraction of the administered peptides was present	a small fraction of the administered peptides was present
